Measured values: patent US8178688B2, “Benzamidine derivatives, process for the preparation thereof and pharmaceutical composition comprising the same” (Dong Wha Pharmaceutical Co., Ltd., priority 2004, dated 2012)
Read-outs that look alike come from different tables or passages of the source.

Key:
[1] = tested on: osteoclast differentiation; assay: Inhibitory effects on osteoclast differentiation (co-culture of bone marrow cells with osteoblast, TRAP staining); type: cell-based, mice; details: Mus musculus, Osteoclast, 168 h, read-out: % inhibitory activity on osteoclastogenesis
Outline: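 Bone marrow cells from 6–8-week male ddY mice co-cultured with neonatal ICR mouse calvarial osteoblasts in α-MEM/FBS with dexamethasone (10^−7M) and vitamin D3 (10^−8M) for 7 days, compound and medium renewed every 2–3 days. TRAP-positive cells with ≥3 nuclei counted; inhibition given as percent of control.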

[2] = tested on: cells; assay: Cytotoxicity test (MTT); type: cell-based; details: 10^−6M, 72 hrs, compared with the control group
Procedure: Cytotoxic effect of benzamidine derivatives was evaluated by the experiment described below.
The test substance was diluted in appropriate solvent at 10^−2M concentration. […] Cells to be used in cytotoxitic test were plated on a 96-well microplate in a dose of 1×10^4 cell/100 μL per well and cultured for 72 hrs. 25 μL of MTT [3-(4,5-dimethyl-2-thiazolyl)-2,5-diphenyl-2H-tetrazolium bromide] dissolved in PBS at 2 mg/mL were added before 4 hrs of the end of culture. After reaction, the plates were centrifuged, medium was decanted and 100 μL of DMSO was added to dissolve formazan. Lastly, the absorbance of developed plates was measured at 540 nm.

[3] = 1 μm, co-culture of bone marrow cells and osteoblast, 7 days, TRAP-positive osteoclasts versus controls
[4] = 1 m, co-culture of bone marrow cells and osteoblast, 7 days, TRAP-positive osteoclasts versus controls

| SMILES | inhibition at 1 µM [1, 3] | Survival rates of the cells ([2]; MC3T3-E1 cells) | Survival rates of the cells ([2]; ST2 cells) | inhibition at 1 µM [1] | inhibition at 1 µM [1, 4] |
| --- | --- | --- | --- | --- | --- |
| N=C(NO)c1ccc(OCCCCCOc2ccc(-c3csc(C4CCCCC4)n3)cc2)cc1 [Example 8, N-hydroxy-4-(5-[4-(2-cyclohexyl-1,3-thiazol-4-yl)phenoxy]pentoxy)-benzamidine] | 88.3% | 76.9% | 46.2% | – | – |
| Cc1sc(C(C)(C)C)nc1-c1ccc(OCCCCCOc2ccc(C(=N)NO)cc2)cc1 [Example 16, N-hydroxy-4-(5-[4-(2-t-butyl-5-methyl-1,3-thiazol-4-yl)phenoxy]pentoxy)-benzamidine] | – | 39.6% | 30.1% | 64.3% | – |
| CCCCc1sc(C(C)C)nc1-c1ccc(OCCCCCOc2ccc(C(=N)NO)cc2)cc1 [Example 32, N-hydroxy-4-(5-[4-(5-butyl-2-isopropyl-1,3-thiazol-4-yl)phenoxy]pentoxy)-benzamidine] | 59.4% | 100.0% | 55.1% | – | – |
| CCCCc1sc(C2CCCCC2)nc1-c1ccc(OCCCCCOc2ccc(C(=N)NO)cc2)cc1 [Example 35, N-hydroxy-4-(5-[4-(5-butyl-2-cyclohexyl-1,3-thiazol-4-yl)phenoxy]pentoxy)-benzamidine] | – | 73.6% | 56.3% | 69.8% | – |
| CCCCc1sc(C(C)(C)C)nc1-c1ccc(OCCCCCOc2ccc(C(=N)NO)cc2)cc1 [Example 37, N-hydroxy-4-(5-[4-(5-butyl-2-t-butyl-1,3-thiazol-4-yl)phenoxy]pentoxy)-benzamidine] | – | 74.4% | 40.5% | 52.9% | – |
| N=C(NO)c1ccc(OCCCCCOc2ccc(-c3nc(-c4ccccc4)sc3Cc3ccccc3)cc2)cc1 [Example 40, N-hydroxy-4-(5-[4-(5-benzyl-2-phenyl-1,3-thiazol-4-yl)phenoxy]pentoxy)-benzamidine] | 60.1% | 100.0% | 53.3% | – | – |
| Cc1nc(-c2ccc(OCCCCCOc3ccc(C(=N)NO)cc3)cc2)c(CC2CCCC2)s1 [Example 45, N-hydroxy-4-(5-[4-(5-cyclopentylmethyl-2-methyl-1,3-thiazol-4-yl)phenoxy]pentoxy)-benzamidine] | 97.7% | 75.9% | 37.0% | – | – |
| CCc1nc(-c2ccc(OCCCCCOc3ccc(C(=N)NO)cc3)cc2)c(CC2CCCC2)s1 [Example 46, N-hydroxy-4-(5-[4-(5-cyclopentylmethyl-2-ethyl-1,3-thiazol-4-yl)phenoxy]pentoxy)-benzamidine] | 96.9% | 100.0% | 48.3% | – | – |
| N=C(NO)c1ccc(OCCCCCOc2ccc(-c3nc(-c4ccccc4)sc3CC3CCCC3)cc2)cc1 [Example 48, N-hydroxy-4-(5-[4-(5-cyclopentylmethyl-2-phenyl-1,3-thiazol-4-yl)phenoxy]pentoxy)-benzamidine] | 72.1% | 100.0% | 51.2% | – | – |
| N=C(NO)c1ccc(OCCCCCOc2ccc(-c3nc(-c4cccnc4)sc3CC3CCCC3)cc2)cc1 [Example 49, N-hydroxy-4-(5-[4-(5-cyclopentylmethyl-2-pyridin-3-yl-1,3-thiazol-4-yl)phenoxy]pentoxy)-benzamidine] | 77.1% | 83.5% | 39.0% | – | – |
| N=C(NO)c1ccc(OCCCCCOc2ccc(-c3nc(C4CCCCC4)sc3CC3CCCC3)cc2)cc1 [Example 50, N-hydroxy-4-(5-[4-(5-cyclopentylmethyl-2-cyclohexyl-1,3-thiazol-4-yl)phenoxy]pentoxy)-benzamidine] | – | 81.0% | 61.0% | 79.8% | – |
| CCCCCc1nc(-c2ccc(OCCCCCOc3ccc(C(=N)NO)cc3)cc2)c(CC2CCCC2)s1 [Example 51, N-hydroxy-4-(5-[4-(5-cyclopentylmethyl-2-pentyl-1,3-thiazol-4-yl)phenoxy]pentoxy)-benzamidine] | – | 95.5% | 66.5% | 74.8% | – |
| N=C(NO)c1ccc(OCCCCCOc2ccc(-c3csc(N)n3)cc2)cc1 [Example 57, N-hydroxy-4-(5-[4-(2-amino-1,3-thiazol-4-yl)phenoxy]pentoxy)-benzamidine] | 60.4% | 52.1% | 19.9% | – | – |
| CCCCc1sc(N)nc1-c1ccc(OCCCCCOc2ccc(C(=N)NO)cc2)cc1 [Example 63, N-hydroxy-4-(5-[4-(2-amino-5-butyl-1,3-thiazol-4-yl)phenoxy]pentoxy)-benzamidine] | – | 52.5% | 29.3% | – | 56.5% |
| N=C(NO)c1ccc(OCCCCCOc2ccc(-c3nc(N)sc3CC3CCCC3)cc2)cc1 [Example 67, N-hydroxy-4-(5-[4-(2-amino-5-cyclopentylmethyl-1,3-thiazol-4-yl)phenoxy]pentoxy)-benzamidine] | – | 68.9% | 40.0% | – | 81.4% |
| CNc1nc(-c2ccc(OCCCCCOc3ccc(C(=N)NO)cc3)cc2)c(C)s1 [Example 86, N-hydroxy-4-(5-[4-(5-methyl-2-methylamino-1,3-thiazol-4-yl)phenoxy]pentoxy)-benzamidine] | – | 100.0% | 48.6% | – | 52.9% |
| CCNc1nc(-c2ccc(OCCCCCOc3ccc(C(=N)NO)cc3)cc2)c(C)s1 [Example 87, N-hydroxy-4-(5-[4-(2-ethylamino-5-methyl-1,3-thiazol-4-yl)phenoxy]pentoxy)-benzamidine] | – | 97.3% | 49.8% | – | 58.1% |
| CCCNc1nc(-c2ccc(OC(C)CCCOc3ccc(C(=N)NO)cc3)cc2)c(C)s1 (stereo not drawn) [Example 88, N-hydroxy-4-(4-[4-(5-methyl-2-propylamino-1,3-thiazol-4-yl)phenoxy]pentoxy)-benzamidine] | – | 94.3% | 48.7% | – | 15.9% |
| Cc1sc(NC(=O)c2ccncc2)nc1-c1ccc(OCCCCCOc2ccc(C(=N)NO)cc2)cc1 [Example 91, N-hydroxy-4-(5-[4-(5-methyl-2-(4-pyridylcarbonyl)amino-1,3-thiazol-4-yl)phenoxy]pentoxy)-benzamidine] | – | 41.3% | 20.8% | – | 92.9% |
| N=C(NO)c1ccc(OCc2ccc(COc3ccc(-c4nc(C5CCCCC5)sc4CC4CCCC4)cc3)cc2)cc1 [Example 210, N-hydroxy-4-(4-[4-(5-cyclopentylmethyl-2-cyclohexyl-thiazol-4-yl)-phenoxymethyl]-benzyloxy)-benzamidine] | – | – | – | – | 68.8% |
| Cc1nc(-c2ccc(OCCCCCCOc3ccc(C(=N)NO)cc3)cc2)c(C(C)C)s1 [Example 211, N-hydroxy-4-(6-[4-(5-isopropyl-2-methyl-thiazol-4-yl)phenoxy]-hexyloxy)-benzamidine] | – | – | – | – | 44% |
| CCCOc1cc(OCCCCCOc2ccc(C(=N)NO)cc2)c(CC)cc1-c1csc(C)n1 [Example 213, N-hydroxy-4-(5-[2-ethyl-4-(2-methyl-thiazol-4-yl)-5-propoxy-phenoxy]-pentyloxy)-benzamidine] | – | – | – | – | 91.8% |
